Tests used:
[1] = tested on: IL-2 production in Jurkat T-cells; assay: Inhibition of IL-2 production, Jurkat/PHA/1% FBS, ELISA; type: cell-based; details: Homo sapiens, read-out: IL-2 inhibition Jurkat/PHA/1% FBS IC50 (nM), PHA 2.5 μg/mL, 20 hours
Procedure: JurkaT-cells were placed in a 96 well plate (0.5 million cells per well in 1% FBS medium), and then a test compound of this invention was added at different concentrations. After 10 minutes, the cells were activated with PHA (final concentration 2.5 μg/mL) and incubated for 20 hours at 37° C. under 5% CO2. The final volume was 200 μL. Following incubation, the cells were centrifuged, and the supernatants collected and stored at −70° C. prior to assaying for IL-2 production. A commercial ELISA kit (IL-2 Eli-pair, Diaclone Research, Besancon, France) was used to detect production of IL-2, from which dose response curves were obtained. The IC50 value was calculated as the concentration at which 50% of maximum IL-2 production after stimulation was inhibited versus a non-stimulation control.

[2] = biological target: T1, ICRAC current (CRAC ion channels), RBL-2H3 cells (Rattus norvegicus, UniProt Q5M848); assay: Automated patch clamp (Qpatch) inhibition of ICRAC current in RBL-2H3 cells; type: cell-based; details: compound at 100 nM, method calculates % ICRAC inhibition
T1 construct: endogenous in cells; host or cells: RBL-2H3 (rat basophilic leukemia cells)
Procedure: Automated patch clamp experiments are conducted with the QPatch 16 (Sophion Bioscience, Ballerup, Denmark) at room temperature (21-25° C.). Immediately following the establishment of giga-seal whole-cell configuration, the cells membrane potential is clamped at 0 mV. Voltage ramps of 50 ms duration spanning the voltage range of −100 to +100 mV are then stimulated at a rate of 0.33 Hz. Currents are filtered at 2.9 kHz and digitized at 200 μs intervals. Capacitive currents and series resistance are determined and corrected before each voltage ramp using the automatic capacitance compensation.
RBL-2H3 are grown in DMEM media supplemented with 10% fetal bovine serum, penicillin 100 U/ml and streptomycin […] in an atmosphere of 95% air/5% CO2. Cells are grown to confluence in 175 cm^2 tissue culture flask. On the experimental day, cells harvested with 0.25% trypsin/0.02% EDTA and resuspended in extracellular solution at density of 5×10^6 cells/ml.
The intracellular solution contains Cs-Glutamate 90 mM; NaCl 8 mM; MgCl2 3 mM; CsCl 20 mM; CsBAPTA 20 mM; HEPES 10 mM; InsP3 0.02 mM; pH=7.2 adjusted with CsOH.
The extracellular solution contains NMDGCl 120 mM; KCl 5.4 mM; CsCl 10 mM; CaCl2 10 mM; MgCl2 1 mM; HEPES 10 mM; Glucose 5.5 mM; at pH=7.4 adjusted with HCl.
ICRAC currents are measured using 50 msec voltage ramps between −100 mV to +100 mV. The voltage ramps are stimulated every 3 seconds for at least 570 seconds. The maximum ICRAC current is allowed to develop for at least 135 seconds. Compounds diluted in extracellular solutions are then applied twice, 30 seconds apart. After incubating the cells with compound for 435 seconds, a reference solution is applied at the end of the experiment. The reference solution is a Ca^2+ free extracellular solution.
Off-line analysis with the Qpatch software is used to plot the current value at −80 mV for each ramp trace against time. The resulting current versus time data is then exported into a Microsoft Excel spreadsheet. The ICRAC membrane currents are separated from the cells basal background currents by either subtracting out the average membrane current values during the first 1-3 traces, or the average membrane current values obtained with the reference solution at the end of the experiment. The % ICRAC inhibition in each cell is calculated by comparing the amount of current just prior to the first compound addition to the amount of current after the cells has been perfused with the compound for at least 400 seconds.

T1 sequence (Q5M848 whole entry): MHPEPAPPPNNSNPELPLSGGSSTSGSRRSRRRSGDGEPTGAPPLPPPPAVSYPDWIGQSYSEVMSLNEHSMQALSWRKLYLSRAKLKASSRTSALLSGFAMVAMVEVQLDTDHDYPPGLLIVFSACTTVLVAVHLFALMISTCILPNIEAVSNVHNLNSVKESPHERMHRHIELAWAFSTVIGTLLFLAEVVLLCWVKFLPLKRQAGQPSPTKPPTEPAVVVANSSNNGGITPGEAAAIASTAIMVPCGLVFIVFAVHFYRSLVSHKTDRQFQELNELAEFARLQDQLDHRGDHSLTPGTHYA

Structure (SMILES)	IC50 [1]	inhibition at 0.1 µM [2]
Cc1cc(C)c(NC(=O)c2ccc(-c3cc(-c4nnn(C)n4)ccc3C)cc2)cn1 [Compound 3, N-(4,6-dimethylpyridin-3-yl)-2′-methyl-5′-(2-methyl-2H-tetrazol-5-yl)-[1,1′-biphenyl]-4-carboxamide]	46 nM	36%
Cc1ccc(-c2nc(-c3ccc(C(=O)Nc4c(F)cccc4F)cc3)c(C)s2)cn1 [Compound 1]	27 nM	80%
CCc1sc(-c2cnc(C)cn2)nc1-c1ccc(C(=O)Nc2cnc(C)cc2C)cc1 [Compound 5]	32 nM	40%
Cc1cc(C)c(NC(=O)c2ccc(-c3cc(-c4nnn(C)n4)ccc3Cl)cc2)cn1 [Compound 2, 2′-chloro-N-(4,6-dimethylpyridin-3-yl)-5′-(2-methyl-2H-tetrazol-5-yl)-[1,1′-biphenyl]-4-carboxamide]	33 nM	61%
Cc1ccncc1C(=O)Nc1ccc(-c2cc(-c3nnn(C)n3)ccc2Cl)cn1 [Compound 4, N-(5-(2-chloro-5-(2-methyl-2H-tetrazol-5-yl)phenyl)pyridin-2-yl)-4-methylnicotinamide]	–	36%
CCc1sc(-c2cc(C)on2)nc1-c1ccc(C(=O)Nc2cncnc2C)cc1 [Compound 6]	38 nM	93%

Next, values leading:

IC50 [1]	inhibition at 0.1 µM [2]	Structure (SMILES)
10 nM	98%	Cn1cc(-c2ccc(Cl)c(-c3cnc(NC(=O)c4cccc(F)c4F)cn3)c2)cn1 [Compound 7, N-(5-(2-chloro-5-(1-methyl-1H-pyrazol-4-yl)phenyl)pyrazin-2-yl)-2,3-difluorobenzamide]
14 nM	82%	Cn1cc(-c2ccc(Cl)c(-c3cnc(NC(=O)c4ccc(F)cc4F)cn3)c2)cn1 [Compound 8, N-(5-(2-chloro-5-(1-methyl-1H-pyrazol-4-yl)phenyl)pyrazin-2-yl)-2,4-difluorobenzamide]
10 nM	73%	CCc1sc(-c2cc(C)on2)nc1-c1ccc(NC(=O)c2cncc(Cl)c2C)nc1 [Compound 9]

Reference: US20140242099A1 (Synta Pharmaceuticals Corp., priority 2011, published 2014)
